Like-named read-outs stand apart in the source and are kept apart here.
Key:
[1] = test system: Giardia lamblia trophozoites; design: method as in PMID 28798383; details: previously reported; cited from earlier work
[2] = target: T1, triosephosphate isomerase (TPI) (Giardia intestinalis, UniProt P36186); design: method as in PMID 28798383; details: BHO2 comparison; cited from earlier work
T1 construct: His-tag (TEV-cleavable) (cleaved yes); made in house

VERO cells = test system: VERO cells; design: method as in PMID 28798383; details: cited from earlier work
[3] = target: T1, triosephosphate isomerase (TPI); design: method as in PMID 28798383; details: previously reported; cited from earlier work
[4] = target: T1, triosephosphate isomerase (TPI); details: cited from earlier work
[5] = target: T1, triosephosphate isomerase (TPI); test: Inactivation of recombinant TPI enzyme with compounds; assay type: biochemical
Method: The TPI from G. lamblia was expressed and purified. […] When the culture reached A600 = 0.8, it was induced using 0.4 mM IPTG and incubated overnight at 30 °C with shaking at 180 rpm. After the bacteria were collected by centrifugation (10,000× g, 15 min) and suspended in 40 mL of lysis buffer, pH 8.0 (50 mM Tris, 50 mM NaCl, 5 mM β-mercaptoethanol, and 1 mM phenylmethylsulfonyl fluoride). The bacterial suspension was disrupted by sonication and centrifuged at 9000× g for 1 h at 4 °C. Protein purification was performed by immobilized metal affinity chromatography (IMAC) using a Profinity Ni^2+ charged resin (Bio-Rad) previously reported by Enriquez-Flores et al.. The His-tag sequence was removed from the TIM by incubation with TEVP at a molar ratio of 30:1 (TPI/TEVP) at room temperature for 17 h in digestion buffer, pH 8.0 (50 mM Tris, 0.5 mM ethylene diamine tetraacetic acid (EDTA), and 1 mM dithiothreitol). The enzyme concentration was spectrophotometrically determined at 280 nm, and the enzyme was used immediately.
Enzyme activity of TPI was determined spectrophotometrically as described by monitoring the conversion of glyceraldehyde-3-phosphate (GAP) to dihydroxyacetone phosphate (DHAP). […] The standard reaction mixture contained 1 mM GAP, 0.2 mM NADH, and 0.9 units/mL of α-GDH in TE buffer (100 mM triethanolamine, 10 mM EDTA, pH 7.4). The reaction was initiated by adding 5 ng/mL of TPI to the reaction mixture.
To determine the inactivation of the TPI enzyme from G. lamblia, we performed inactivation assays of the enzyme in the presence of the synthesized compounds. The compounds’ stock solutions were freshly prepared using 100% dimethyl sulfoxide (DMSO) as the solvent at 25 mM. […] After the incubation period, the enzymatic activity was measured by withdrawing an aliquot of each experimental condition, as described above. The results were expressed in terms of the percentage of activity versus the compound’s concentration.

[6] = test system: Giardia lamblia trophozoites; test: Antigiardial activity on G. lamblia trophozoites, trypan blue dye exclusion; assay type: cell-based; details: Giardia duodenalis, 48 h at 37 °C, pH 7.4, trypan blue
Method: Giardia lamblia WB strain (ATCC number 30957) was grown in a modified TYI-S-33 medium supplemented with 10% fetal bovine serum. The parasite was cultivated in 15 mL screw-capped borosilicate glass tubes containing 13 mL medium. The tubes were incubated on a 15° horizontal slant at 37 °C. Giardia was harvested from confluent culture by chilling the tubes on ice for 5‒10 min to detach cells, followed by centrifugation at 800× g for 5 min.
The antigiardial activity of the prepared compounds was tested as described. One milligram of a test compound was dissolved in 10 L of DMSO and topped up with 1 mL growth medium. The solution was filter-sterilized using 0.22-m syringe filters and the appropriate volumes of the solutions were taken to prepare the concentration of each compound in 1.5 mL microtubes. For each preparation, concentrations of 500, 250, 125, 62, and 31 µg/mL were prepared in a final volume of 1.5 mL. Each tube was inoculated with 5 × 10^4 trophozoites of G. lamblia and then incubated for 48 h at 37 °C. After incubation, 75 L of the treated trophozoites were subcultured individually for another 48 h in a fresh medium free of compounds. At the end of this period, the viable trophozoites were counted. Each compound was assayed in duplicate in three independent experiments. In each assay, appropriate controls were also tested, including a sample without compound and another with DMSO.
The parasites in each tube were counted using a standard hemocytometer at 10× objective. In each count, trypan blue was employed to distinguish live parasites from dead ones. To permit detachment of Giardia, the tubes were placed on ice for 10 min and the parasites were then centrifuged at 800× g for 10 min. The supernatant was discarded and 1 mL fresh medium was added to each tube. The final suspension was prepared by mixing 25 μL of the parasite suspension in each tube with 100 μL of 0.4% trypan blue in phosphate-buffered saline (PBS). The 50% inhibitory concentration (IC50) was employed as a parameter for biological activity. The IC50 is the concentration of compounds that cuts the number of parasites to half that in the negative control (growth medium + DMSO + parasites). Lastly, the 50% inhibitory concentration (IC50) was calculated.

T1 sequence (P36186 whole entry): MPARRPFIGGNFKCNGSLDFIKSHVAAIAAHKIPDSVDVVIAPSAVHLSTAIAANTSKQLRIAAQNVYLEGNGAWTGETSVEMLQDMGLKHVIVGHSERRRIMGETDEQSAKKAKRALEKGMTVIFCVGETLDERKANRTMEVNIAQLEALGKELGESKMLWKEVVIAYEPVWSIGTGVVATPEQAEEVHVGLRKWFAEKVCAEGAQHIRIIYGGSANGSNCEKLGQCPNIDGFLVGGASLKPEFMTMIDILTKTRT

Row | SMILES | IC50 [1] [µM] | IC50 [3] [µM] | Second-order inactivation constant k2 ([4]; previously reported) [M⁻¹ s⁻¹] | further results
1 | COc1c(C)cnc(C[S+]([O-])c2nc3ccc(C)cc3[nH]2)c1C (stereo not drawn) [BHO2] | 120 | 64 | 1.6 | Loss of intrinsic fluorescence signal of TPI [2]: 25%; CC50 for mammal cells (VERO) (VERO cells): millimolar ranges
2 | [O-][S+](Cc1ccccn1)c1nc2ccccc2[nH]1 (stereo not drawn) [H-BZM1] |  |  |  | IC50 [5]: > 500 µM; Loss (reduction) of TPI enzyme activity ([5]; 500 µM compound, 2 h at 37 °C): 25%; IC50 [6]: 676 µM
3 | COc1ccc2[nH]c([S+]([O-])Cc3ncc(C)c(OC)c3C)nc2c1 (stereo not drawn) [Omeprazole] | 300 | 225 | 0.78 | 
4 | COCCCOc1ccnc(C[S+]([O-])c2nc3ccccc3[nH]2)c1C (stereo not drawn) [rabeprazole] |  |  |  | Second-order inactivation constant k2 ([4]; reported by García-Torres et al.): 2.66 M⁻¹ s⁻¹

Source: PMC7504735, “Enhanced Antigiardial Effect of Omeprazole Analog Benzimidazole Compounds” (Molecules, 2020)
